The nature of test [1]: Inactivation of (1-3)-beta-D-glucanase by the compound was determined.
Test [2] can be described thus: Phytoalexin-elicitor activity in tobacco cotyledon tissue was determined after 66 hrs. Type of test: functional, Nicotiana tabacum.
The nature of test [3]: Phytoalexin-elicitor activity in tobacco cotyledon tissue was determined after 22 hrs. Type of test: functional, Nicotiana tabacum.
The nature of test [4]: Phytoalexin-elicitor activity in tobacco cotyledon tissue was determined after 44 hrs. The format is functional, Nicotiana tabacum.

Structures are written as SMILES.

For the molecule `OC[C@H]1O[C@@H](O[C@@H]2[C@@H](O)[C@H](O[C@@H]3[C@@H](O)[C@H](O[C@@H]4[C@@H](O)[C@H](O[C@@H]5[C@@H](O)[C@H](OC[C@H]6CO6)O[C@H](CO)[C@H]5O)O[C@H](CO)[C@H]4O)O[C@H](CO)[C@H]3O)O[C@H](CO)[C@H]2O)[C@H](O)[C@@H](O)[C@@H]1O`, the K app in test [1] came to 0.000379 min⁻¹. The figures for the EC50 in test [2], in test [3] and in test [4] were 160 uM l-1, 90 uM l-1 and 80 uM l-1, respectively.

The values are drawn from ChEMBL document CHEMBL1138720, “Synthesis, (1-->3)-beta-D-glucanase-binding ability and phytoalexin-elicitor activity of (R)-2,3-epoxypropyl (1-->3)-beta-D-pentaglucoside” (Bioorg Med Chem Lett, 2004).
